Measurements reported in US4013507A, “Ionene polymers for selectively inhibiting the vitro growth of malignant cells” (California Institute of Technology, priority 1975, dated 1977).

Columns and labels:
L1210 leukemia system = conditions: when quaternized; J. Med. Chem. 10, 706, 1967; cited from earlier work
in vivo [1] = conditions: mouse
Description: Due to the high positive charge density and high water solubility, ionenes strongly interact with a wide variety of cell materials.

[2] = test system: sulfhydryl groups on the cell periphery; assay: Effect of N-ethylmaleimide pretreatment on cell adhesion to ionene-coated surface; format: cell-based; conditions: pretreatment of the cells
Description: Chemical interaction with DNA is also a possibility. In fact, ionenes form strong waterinsoluble complexes with DNA.

DNA = conditions: polyamines, general knowledge; cited from earlier work
[3] = Repeated-dose tolerance of PC-6 and cyclophosphamide in mice; format: in vivo; conditions: similar doses to nine doses of 100 mg/kg per day
in vivo [4] = assay: in vivo
Description: Protamine sulfate and toluidine blue, neither of which are free of toxic effects, are clinically used as antiheparin agents.

[5] = Protective action of heparin against toxicity of 6,3-ionene bromide, mice; format: in vivo
Description: (§1) This is not surprising considering the formation of relatively stable complexes between ionenes and heparin.

[6] = Protective action of heparin against toxicity of 6,3-ionene bromide, dogs; format: in vivo
Description: as §1

## O=C(Nc1ccc(-c2ccncc2)cc1)c1ccc(C(=O)Nc2ccc(-c3ccncc3)cc2)cc1
L1210 leukemia system
  Effectiveness against L1210 leukemia system: very effective against the L1210 leukemia system when quaternized

## C[N+](C)(CBr)CCCCCC[N+](C)(C)CBr
In vivo [1]; ip
  LD50: 10 to 50 mg/kg
In vivo [1]; po
  LD50: 300 to 500 mg/kg

## C[N+](C)(CCBr)CCCCCC[N+](C)(C)CCBr
In vivo [1]; ip
  LD50: 10 to 50 mg/kg
In vivo [1]; po
  LD50: 100 to 200 mg/kg

## C[N+](C)(CBr)CCCC[N+](C)(C)CBr
In vivo [1]; ip
  LD50: > 1000 mg/kg
In vivo [1]; po
  LD50: > 1000 mg/kg

## C[N+]1(C)CC[N+](C)(C)CC1
In vivo [1]; ip
  LD50: > 1000 mg/kg
In vivo [1]; po
  LD50: > 1000 mg/kg

## CCN1C(=O)C=CC1=O [N-ethylmaleimide (NEM), N-ethylmaleimide]
[2]
  Effect on cell adhesion on an ionene-coated surface: inhibited cell adhesion on an ionene-coated surface

## NCCCCNCCCN [Spermidine, NH2 (CH2)3 --NH--(CH2)4 NH2]
DNA
  Binding to DNA: bind to DNA

## NCCCNCCCCNCCCN [Spermine, NH2 (CH2)3 NH(CH2)4 NH(CH2)3 NH2]
DNA
  Binding to DNA: bind to DNA

## O=P1(N(CCCl)CCCl)NCCCO1 (stereo not drawn) [cyclophosphamide]
[3]
  Lethality of similar doses: lethal within a much shorter time

## Cc1cc2nc3ccc(N(C)C)cc3[s+]c2cc1N [toluidine blue]
In vivo [4]; in vivo, iv
  LD50: 45 mg/kg

## Heparin
[5]; 6,3-ionene bromide doses relative to LD50, heparin pretreatment
  Survival of mice pretreated with heparin: survive doses three times the LD50 values with only mild toxicity symptoms
[5]; mice
  Protective action in neutralizing the toxicity of 6,3-ionene bromide: offers a protective action in neutralizing the toxicity of 6,3-ionene bromide
[6]
  Protective action in neutralizing the toxicity of 6,3-ionene bromide: offers a protective action in neutralizing the toxicity of 6,3-ionene bromide

## Protamine sulfate
In vivo [4]; i.v., comparison agents, species not given
  i.v. LD50: 44 mg/kg
